# Measurements as given in BindingDB's records for doi:10.1016/j.bmc.2010.03.036 (Chugai Pharmaceutical, 2010).
# Key:
# [1] = Antagonist activity at AR in bicalutamide-resistant human LNCAP cells assessed as effect on cell proliferation after 6 days
# [2] = Antagonist activity at AR in human LNCAP cells assessed as effect on cell proliferation after 6 days
Structure (SMILES),IC50 [1] [nM],IC50 [2] [nM]
"CC1(C)C(=O)N(c2ccc(C#N)c(C(F)(F)F)c2)C(=S)N1CCCNS(N)(=O)=O [3-[3-(4-Cyano-3-trifluoromethylphenyl)-5,5-dimethyl-4-oxo-2-thioxoimidazolidin-1-yl]propylsulfamide]",89,780
"CC1(C)C(=O)N(c2ccc(C#N)c(C(F)(F)F)c2)C(=S)N1CCCS(N)(=O)=O [3-[3-(4-Cyano-3-trifluoromethylphenyl)-5,5-dimethyl-4-oxo-2-thioxoimidazolidin-1-yl]propane-1-sulfonamide]",18,160
"CC1(C)C(=O)N(c2ccc(C#N)c(C(F)(F)F)c2)C(=S)N1CCCCS(N)(=O)=O [4-[3-(4-Cyano-3-trifluoromethylphenyl)-5,5-dimethyl-4-oxo-2-thioxoimidazolidin-1-yl]butane-1-sulfonamide]",110,1400
"CC1(C)C(=O)N(c2ccc(C#N)c(C(F)(F)F)c2)C(=S)N1CCCC(=O)O [4-[3-(4-cyano-3-trifluoromethylphenyl)-5,5-dimethyl-4-oxo-2-thioxoimidazolidin-1-yl]butyric acid]",400,2000
"Cc1c(N2C(=O)C(C)(C)N(CCCS(N)(=O)=O)C2=S)ccc(C#N)c1C(F)(F)F [3-[3-(4-Cyano-2-methyl-3-trifluoromethylphenyl)-5,5-dimethyl-4-oxo-2-thioxoimidazolidin-1-yl]propane-1-sulfonamide]",,1100
"CN(C)S(=O)(=O)CCCN1C(=S)N(c2ccc(C#N)c(C(F)(F)F)c2)C(=O)C1(C)C [3-[3-(4-Cyano-3-trifluoromethylphenyl)-5,5-dimethyl-4-oxo-2-thioxoimidazolidin-1-yl]propane-1-sulfonic aciddimethylamide]",,3700
"CC1(C)C(=O)N(c2ccc(C#N)c(C(F)(F)F)c2)C(=S)N1CCS(N)(=O)=O [2-[3-(4-Cyano-3-trifluoromethylphenyl)-5,5-dimethyl-4-oxo-2-thioxoimidazolidin-1-yl]ethanesulfonamide]",79,
"CC1(C)C(=O)N(c2ccc(C#N)c(C(F)(F)F)c2)C(=S)N1CCCNC(N)=O [3-[3-(4-Cyano-3-trifluoromethylphenyl)-5,5-dimethyl-4-oxo-2-thioxoimidazolidin-1-yl]propylurea]",200,1600
"CC1(C)C(=O)N(c2ccc(C#N)c(C(F)(F)F)c2)C(=S)N1CCCC(N)=O [4-[3-(4-Cyano-3-trifluoromethylphenyl)-5,5-dimethyl-4-oxo-2-thioxoimidazolidin-1-yl]butyramide]",55,400
"Cc1cc(N2C(=O)C(C)(C)N(CCCS(N)(=O)=O)C2=S)ccc1C#N [3-[3-(4-Cyano-3-methylphenyl)-5,5-dimethyl-4-oxo-2-thioxoimidazolidin-1-yl]propane-1-sulfonamide]",51,300
"CC1(C)C(=O)N(c2ccc(C#N)c(Cl)c2)C(=S)N1CCCS(N)(=O)=O [3-[3-(3-Chloro-4-cyanophenyl)-5,5-dimethyl-4-oxo-2-thioxoimidazolidin-1-yl]propane-1-sulfonamide]",12,410
"CNS(=O)(=O)CCCN1C(=S)N(c2ccc(C#N)c(C(F)(F)F)c2)C(=O)C1(C)C [3-[3-(4-Cyano-3-trifluoromethylphenyl)-5,5-dimethyl-4-oxo-2-thioxoimidazolidin-1-yl]propane-1-sulfonic acidmethylamide]",30,190
